Reference: patent publication US6630508B1, “Substituted benzopyrans as selective estrogen receptor β agonists” (Eli Lilly and Company, priority 2002, dated 2003)

Target: T1, ER beta receptor (Homo sapiens, UniProt Q92731)
T1 construct: purchased PanVera
Experiment: Competition ER binding assay (3H-Estradiol displacement)
Details: for Ratio of Ki(nM)ER alpha/Ki(nM) ER beta: selectivity ratio Ki ER alpha / Ki ER beta, Ki from IC50 by Cheng-Prusoff, 3H-Estradiol, ERAlpha or ERbeta Receptor (PanVera)
Protocol: The competition ER binding assay was run in a buffer containing 50 mM N-[2-hydroxyethyl]piperazine-N′-[2-ethanesulfonic acid (Hepes) pH 7.5, 1.5 mM EDTA, 150 mM NaCl, 10% glycerol, 1 mg/mL ovalbumin, 5 mM DTT, 0.025 μCi per well of ^3H-Estradiol(NEN #NET517 at 118 Ci/mmol, 1 mCi/mL), and 10 ng/well ERAlpha or ERbeta Receptor (PanVera). Competing compounds were added at 10 different concentrations. Non-specific binding was determined in the presence of 1 μM of E2 (17-β Estradiol, Sigma, St. Louis, Mo.). The binding reaction (140 μL) was incubated for 4 hours at room temperature, then 70 μL of cold dextran coated charcoal (DCC) buffer was added to each reaction (DCC buffer was prepared by adding 0.75 g of charcoal[Sigma] and 0.25 g of dextran [Pharmacia] per 50 mL of assay buffer). The incubation plates were mixed for 8 minutes on an orbital shaker at 4° C. and then centrifuged at 3,000 rpm for 10 minutes at 4° C. An aliquot of 120 μl of the mix was transferred to another 96-well, white flat bottom plate (Costar) and 175 μl of Wallac Optiphase Hisafe 3 scintillation fluid was added to each well. The plates were sealed and then shaken vigorously on an orbital shaker. After an incubation of 2.5 hrs, the radioactivity was counted in a Wallac Microbeta counter. […] The Kd for ^3H-Estradiol was determined by saturation binding to ERα and ERβ receptors. The IC50 values for compounds were converted to Ki values using the Cheng-Prusoff equation and the Kd values were determined by saturation binding assay.

T1 sequence (Q92731 whole entry): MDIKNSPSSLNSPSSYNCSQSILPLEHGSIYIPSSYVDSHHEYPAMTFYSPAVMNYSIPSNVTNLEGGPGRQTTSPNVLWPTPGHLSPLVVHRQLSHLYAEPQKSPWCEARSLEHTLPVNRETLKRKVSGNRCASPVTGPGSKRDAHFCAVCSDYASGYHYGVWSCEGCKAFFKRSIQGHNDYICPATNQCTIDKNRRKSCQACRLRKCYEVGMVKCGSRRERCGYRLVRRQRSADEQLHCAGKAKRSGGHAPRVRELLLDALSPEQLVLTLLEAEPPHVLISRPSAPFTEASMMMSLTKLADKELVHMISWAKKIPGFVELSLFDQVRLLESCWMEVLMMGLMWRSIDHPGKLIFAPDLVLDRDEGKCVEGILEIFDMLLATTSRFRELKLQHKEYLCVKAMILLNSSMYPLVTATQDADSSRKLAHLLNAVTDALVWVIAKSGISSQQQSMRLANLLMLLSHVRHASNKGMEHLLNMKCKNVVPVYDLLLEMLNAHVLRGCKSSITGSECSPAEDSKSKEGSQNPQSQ

Structure (SMILES)	activity in the ER binding assay	Ratio of Ki(nM)ER alpha/Ki(nM) ER beta
CCc1ccc([C@H]2Oc3ccc(O)cc3[C@H]3CCC[C@H]32)cc1 (racemic) [Example 3, (±)-2-(4-ethylphenyl)-6-hydroxy-cyclopentyl[c]3,4-dihydro-2H-1-benzopyran]	active	2.6
Oc1ccc2c(c1)[C@H]1CCC[C@H]1[C@@H](c1ccc(F)cc1)O2 (racemic) [Example 2, (±)-2-(4-Fluorophenyl)-6-hydroxy-cyclopentyl[c]3,4-dihydro-2H-1-benzopyran]	active	5.0
Cc1ccc([C@H]2Oc3ccc(O)cc3[C@H]3CCC[C@H]32)cc1 (racemic) [Example 6, (±)-2-(4-Methylphenyl)-6-hydroxy-cyclopentyl[c]3,4-dihydro-2H-1-benzopyran]	active	12.6
Oc1ccc2c(c1)[C@H]1CCC[C@H]1[C@@H](c1ccc(C(F)(F)F)cc1)O2 (racemic) [Example 4, (±)-2-(4-Trifluoromethylphenyl)-6-hydroxy-cyclopentyl[c]3,4-dihydro-2H-1-benzopyran]	active	6.9
